In patent publication US6265423A, “Aromatic polycyclic retinoid-type derivatives, method for preparing same, and use thereof for making pharmaceutical and cosmetic compositions” (priority 1996, dated 2001):

Legend:
[1] = test system: A549 human pulmonary cancer cells; test: MTT test, proliferation of A549; format: cell-based; conditions: for activity at 100 µM / activity at 1 µM / activity at 0.01 µM: Homo sapiens, 72 h, control = 100%, read-out: level of proliferation; for activity at 100 µM: A549, 10^-4 M; for activity at 1 µM: A549, 10^-6 M; for activity at 0.01 µM: A549, 10^-8 M
Gal4-RARα = test: Transactivation, chimerical receptor Gal4-RARα (transitory transfection of HeLa); format: cell-based; conditions: 10^-6 M; 100% = TTNPB 10^-8 M
Gal4-RARγ = test: Transactivation, chimerical receptor Gal4-RARγ (transitory transfection of HeLa); format: cell-based; conditions: 10^-6 M; 100% = TTNPB 10^-8 M
T-47D cells = test: Effect on oestrogen-induced proliferation of T-47D cells; format: cell-based, human; conditions: for activity at 1 µM: Homo sapiens, T47D, 168 h, 10^-6 M, 100% = E2 10^-9 M, 7 days, read-out: growth of T-47D cells
[2] = test system: response element RARE of RARβ gene, endogenic retinoic receptors, HRLN lineage; test: HRLN transactivation (RARE-luciferase, stably transfected HeLa); format: cell-based; conditions: for Emax: Homo sapiens, HeLa, read-out: HRLN transactivation, E max
Outline: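 Luciferase reporter read-out, in duplicate and shielded from light, in phenol red-free DMEM plus 3% dextran-charcoal-stripped FCS. The HeLa-derived line expresses endogenous retinoid receptors and stably harbours luciferase under the natural RARβ-gene RARE (RARE3-tk-Luc).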

[3] = test system: AP-1, MTLN lineage (MCF-7); test: Anti-AP-1 effect, MTLN lineage activated by TPA; format: cell-based, human; conditions: for inhibition at 1 µM / inhibition at 0.1 µM: Homo sapiens, MCF7, cells activated by 10^-7 M TPA, range of several experiments; for inhibition at 1 µM: 10^-6 M; for inhibition at 0.1 µM: 10^-7 M, read-out: anti-AP-1 effect, inhibition; for anti-AP-1 effect (in words): TPA-activated MTLN cells
Outline: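 Percent inhibition of AP-1-driven luciferase after basal activity deduction, expressed as a range across repeat experiments. Cells: MTLN, an MCF-7 line stably transfected with p(TRE)3-tk-Luc and stimulated with 10^-7 M TPA; tests in duplicate.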

[4] = test system: ERE-βGlob-Luc, MELN lineage (MCF-7); test: Anti-oestrogenic effect, MELN lineage activated by estradiol; format: cell-based, human; conditions: for inhibition / inhibition at 0.1 µM: Homo sapiens, MCF7, cells activated by 10^-9 M estradiol; for inhibition: 10^-6 M; for inhibition at 0.1 µM: 10^-7 M, read-out: anti-oestrogenic effect, inhibition; for anti-oestrogenic effect (in words): estradiol-activated MELN cells
Outline: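 Run in duplicate on estradiol-activated (10^-9 M) MELN cells, MCF-7 stably transfected with ERE-βGlobin-luciferase reporter. Values are percentages of the estradiol response after deducting basal level, defined by 1 μM hydroxytamoxifen.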

[5] = test system: Gal4-RAR (RARα, RARβ, RARγ); test: Chimerical receptors Gal4-RAR, overall profile; format: cell-based
[6] = test system: A-427 human pulmonary cancer cells; test: MTT test, proliferation of A-427; conditions: for activity at 0.01 µM / activity at 1 µM / activity at 100 µM: Homo sapiens, A-427, 72 h, read-out: level of proliferation

| Compound | activity at 100 µM [1] [%] | activity at 1 µM [1] [%] | activity at 0.01 µM [1] [%] | GAL4-RAR RARα transactivation (Gal4-RARα) [%] | GAL4-RAR RARγ transactivation (Gal4-RARγ) [%] | activity at 1 µM (T-47D cells) [%] | HRLN transactivation (in words) [2] | Emax [2] [%] | inhibition at 1 µM [3] [%] | inhibition at 0.1 µM [3] [%] | anti-AP-1 effect (in words) [3] | inhibition [4] [%] | inhibition at 0.1 µM [4] [%] | anti-oestrogenic effect (in words) [4] | Gal-RAR agonist profile (in words) [5] | activity at 0.01 µM [6] [%] | activity at 1 µM [6] [%] | activity at 100 µM [6] [%] | further results |
| --- | --- | --- | --- | --- | --- | --- | --- | --- | --- | --- | --- | --- | --- | --- | --- | --- | --- | --- | --- |
| CC1(C)CCC(C)(C)c2cc(/C=C(\c3ccc(C(=O)O)cc3)C(F)(F)F)ccc21 [CB36493, (E) 4-[1-trifluoromethyl-2-(5,6,7,8-tetrahydro-5,5,8,8-tetramethyl-2-naphthalenyl)-1-ethenyl]benzoic acid] | 10.4 | 93.7 | 98.5 | 38 | 50 | 68 to 78 | induce a transactivation close to that of TTNPB | 97 | 38 to 46 | 26 | exert an inhibitor effect comparable to that of the effect of CB28628 | 17 to 32 | 0 | permit a transrepression of a controlled gene by an ERE | partial agonists at 1 μM for the three RAR receptors | 89.9 | 87.2 | 1.6 |  |
| C/C(=C/c1ccc2c(c1)C(C)(C)CCC2(C)C)c1ccc(-c2nnn[nH]2)cc1 [CB92834] | 14.4 | 109 | 105 | 8 | 2 | 94 | very feebly active | 21 | 20 to 23 | 4 to 9 | anti-AP-1 molecules through RXR | 0 |  | inactive | not RAR agonists | 80.5 | 78.3 | 3.1 | effect on cellular increase, A549 (in words) ([1]; MTT test): show activity on the increase of these two lineages; effect on oestrogen-induced growth, T-47D (in words) (T-47D cells; estradiol 10^-9 M): inactive on the oestrogen-induced growth; effect on cellular increase, A-427 (in words) ([6]; MTT test): show activity on the increase of these two lineages |
| C/C(=C/c1ccc2c(c1)C(C)(C)CCC2(C)C)c1ccc(C(=O)O)cn1 [CB38416, (Z) 2-[1-(5,6,7,8-tetrahydro-5,5,8,8-tetramethyl-2-naphthalenyl)-2-propenyl]pyridinyl-5-carboxylic acid] | 109 | 105 | 126 | 58 | 99 | 50 to 60 | induce a transactivation close to that of TTNPB | 81 | 21 to 25 | 7 to 14 |  | 19 | 0 | permit a transrepression of a controlled gene by an ERE | partial agonist for RARα and RARβ but complete for RARγ | 106 | 105 | 24.1 |  |
